One series has as its system 293T-hACE2 cells. The series can be described thus: Cytotoxicity in 293T-hACE2 cells (PrestoBlue / CCK). Here is the method: (§1) First, cytotoxicity of 02B05 and 03D12 in 293T-hACE2 cells was assayed using PrestoBlue cell viability reagent. Briefly, the cells were seeded into 96-well plates and treated with different concentrations of compounds (a three-fold concentration series from 0.12 to 30 μM for 02B05 and 0.12 to 3.3 μM for 03D12). After incubation at 37 °C for 24 h, 10 μL PrestoBlue (10×) was added to each well and mixed well with the medium. After incubation at 37 °C for another 1 h, the fluorescent signals were read at an excitation wavelength of 560 nm and an emission wavelength of 590 nm, using the EnSpire multimode plate reader (Perkin Elmer, Waltham, MA, USA).

Experiment in series [1]: as above
The settings on record: human, 293T-hACE2 cells. Here is the method:
as §1

In a further series the target is ACE2-S-RBD interaction (Severe acute respiratory syndrome coronavirus 2, UniProt P0DTC2). The format is binding.
For series [2], the system named is SARS-CoV-2 pseudovirus in 293T-hACE2 cells. The series can be described thus: Pseudovirus entry assay (luciferase), SARS-CoV-2 pseudovirus. In kind it is cell-based.
In series [3] the target is T1, SARS-CoV-2 spike S-RBD protein (Severe acute respiratory syndrome coronavirus 2, UniProt P0DTC2).
T1 construct: the S-RBD-mFc protein and ACE2-His protein were immobilized on a CM5 sensor chip; purchased Sino Biological (Beijing, China) 40592-V05H
The series is described as follows: biochemical. In kind it is binding.

Series [4] concerns VSV pseudovirus in 293T-hACE2 cells. The format is cell-based, vesicular stomatitis virus.
A further series has as its target human ACE2 protein (Homo sapiens, UniProt Q9BYF1). The series is described as follows: SPR affinity screen, compounds over immobilized ACE2-His (CM5 chip). In kind it is binding.
In the next series the target is T2, S-RBD-His protein (Severe acute respiratory syndrome coronavirus 2, UniProt P0DTC2).
T2 construct: spike S-RBD protein with His tag (26.6 kDa)
The series is described as follows: Isothermal titration calorimetry (ITC) of compound with S-RBD-His. To be noted: 25 °C, read-out: affinity measured by ITC. In kind it is binding, SARS-CoV-2. (In general: Isothermal titration calorimetry measures the heat released or taken up as one component is titrated into another.)

The structures appear in SMILES notation. Read-outs that look alike come from different tables or passages of the source.

Sequence of human ACE2 protein (Q9BYF1 18-740 limits assumed): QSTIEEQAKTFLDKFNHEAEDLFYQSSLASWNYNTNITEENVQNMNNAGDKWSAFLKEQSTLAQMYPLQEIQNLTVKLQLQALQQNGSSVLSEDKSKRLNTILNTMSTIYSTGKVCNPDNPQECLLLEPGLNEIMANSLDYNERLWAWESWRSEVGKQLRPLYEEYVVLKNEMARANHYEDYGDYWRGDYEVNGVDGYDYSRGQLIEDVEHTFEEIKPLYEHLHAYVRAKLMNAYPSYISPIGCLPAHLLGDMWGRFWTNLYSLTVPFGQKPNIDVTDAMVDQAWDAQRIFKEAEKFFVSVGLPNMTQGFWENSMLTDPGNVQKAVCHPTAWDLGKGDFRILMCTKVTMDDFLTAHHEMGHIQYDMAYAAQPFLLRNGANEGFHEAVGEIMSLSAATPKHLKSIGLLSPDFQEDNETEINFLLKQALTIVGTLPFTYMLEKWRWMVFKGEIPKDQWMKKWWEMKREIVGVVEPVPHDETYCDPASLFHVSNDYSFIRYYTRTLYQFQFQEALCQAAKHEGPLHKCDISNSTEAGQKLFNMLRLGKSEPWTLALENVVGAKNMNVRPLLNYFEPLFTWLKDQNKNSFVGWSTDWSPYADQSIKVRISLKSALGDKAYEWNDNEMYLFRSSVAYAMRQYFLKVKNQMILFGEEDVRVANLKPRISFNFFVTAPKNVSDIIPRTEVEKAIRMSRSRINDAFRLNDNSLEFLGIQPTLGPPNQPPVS

`C[C@@]1(C(=O)O)CC[C@]2(C)CC[C@]3(C)C4=CC(=O)c5c(cc(O)c(O)c5C=O)[C@]4(C)CC[C@@]3(C)[C@@H]2C1` [02B05, demethylzeylasteral]: in the series on 293T-hACE2 cells (at 0.37 μM), the “cell viability and cell morphology” value is on record as “no changes were observed”. Further, the cell morphology result in the series on 293T-hACE2 cells (at 1.1 μM) is reported as “affected”. Besides, the “effect on the activity (viability) of 293T-hACE2 cells” value in the series on 293T-hACE2 cells (concentration no more than 1.1 μM, CCK and PrestoBlue) is given as “no significant effect”. In series [1], this compound showed a cytotoxic concentration (CC50) at 24 h of 7.67 ± 0.79 µM. Also, the “blocking effect on binding of S-RBD to ACE2 (competitive inhibition)” value on ACE2-S-RBD interaction is reported as “strongest blocking effect”. In addition, the inhibition at 0.37 µM in series [2] (Severe acute respiratory syndrome-related coronavirus, 0.37 μM, 293T-hACE2 cells, 24 h post infection, read-out: inhibition of transduction of SARS-CoV-2 pseudovirus) is approximately 7%. In series [3], this compound yielded a Kd of 1.04 µM, a koff of 0.00244 s⁻¹ and a kon of 2350 M⁻¹ s⁻¹. Further, the “effect on the transduction of VSV pseudovirus” value in series [4] was “no effect”. On human ACE2 protein, the Kd was 1.74 µM, the koff is 0.00335 s⁻¹ and the kon came out at 1990 M⁻¹ s⁻¹. In addition, the Kd on S-RBD-His protein is 2.09 µM.

Take `C=CC(=O)Nc1cc(Nc2nccc(-c3c[nH]c4ccccc34)n2)c(OC)cc1N(C)CCN(C)C` [02C15]: in series [3], the Kd came out at 9.11 µM, the koff came to 0.0215 s⁻¹ and the kon came out at 2360 M⁻¹ s⁻¹.

With `CC(C)c1cc(C(C)C)c(CC(=O)NS(=O)(=O)Oc2ccccc2)c(C(C)C)c1` [02C19], the koff at human ACE2 protein (read-out: koff) was 0.052 s⁻¹. Further, the kon on human ACE2 protein (read-out: kon) was 2340 M⁻¹ s⁻¹. The compound also came in with a Kd at human ACE2 protein (target ACE2, SPR, 1:1 binding model for kinetics) of 22.2 µM.

On to `Nc1nc(Nc2ccc3c(c2)CC[C@@H](N2CCCC2)CC3)nn1-c1cc2c(nn1)-c1ccccc1CCC2` [02J06], for which the results for the Kd (in series [3]; at human ACE2 protein) were 64.2 µM and 243 µM, respectively. The dissociation rate constant (koff) in series [3] stood at 0.329 s⁻¹; on human ACE2 protein (read-out: koff), 0.636 s⁻¹. In addition, the values for the kon (in series [3]; at human ACE2 protein (read-out: kon)) were 5120 M⁻¹ s⁻¹ and 2610 M⁻¹ s⁻¹, respectively.

Turning to `COc1cc2c(Oc3ccc4[nH]c(C)cc4c3F)ncnc2cc1OCCCN1CCCC1` [03D12], the cytotoxicity result with 293T-hACE2 cells (concentration as high as 3.3 μM) is “not obvious”. Moreover, the “blocking effect on binding of S-RBD to ACE2 (competitive inhibition)” value on ACE2-S-RBD interaction is on record as “effective in blocking ACE2-S-RBD interaction”. Also, the “inhibitory activity in pseudovirus entry assay” value in series [2] (any concentration tested (0.12 to 3.3 μM)) is on record as “did not exhibit significant inhibitory activity”; in series [2] (at 3.3 μM) it was “no obvious”. The Kd in series [3] amounted to 4.59 µM; on human ACE2 protein it was 3.43 µM. For the same compound, the figures for the dissociation rate constant (koff) (in series [3]; at human ACE2 protein (read-out: koff)) were 0.00964 s⁻¹ and 0.00948 s⁻¹, respectively. In addition, the kon in series [3] was 2100 M⁻¹ s⁻¹; on human ACE2 protein (read-out: kon) it was 2760 M⁻¹ s⁻¹.

`Cl.N` [ammonium chloride, reference compound]: in series [2] (positive control, 20 mM, 293T-hACE2 cells), the “infection by SARS-CoV-2 pseudovirus” value is “almost abolished”. Also, the “infection by VSV pseudovirus” value in series [4] is reported as “almost abolished”.

As usually defined, the CC50 is the concentration giving 50% cytotoxicity. Read a low CC50 as harm at low concentration. Broadly, the inhibition is the drop in the measured response relative to a control, in per cent. What is called koff is the rate constant with which the complex falls apart. Usually kon stands for a measure of how fast the partners come together.

The values above are taken from article PMC7794844 (Molecules, 2020).
